How the values were obtained:
Format in all cases: cell-based, E. coli
[1] = system: MS-K88-030321HM-PC2BSRAK88; experiment: Growth on blood agar containing 16 μg/ml tetracycline HCl; details: 18 hours at 37° C.
Method: (§1) Comparison of tetracycline resistance between Edema Vac F18 cells cured of plasmids that contain AMR genes (MS060520HM-PCISRAF18) and Entero Vac K88 cells cured of plasmids that contain AMR genes (MS-K88-030321HM-PC2BSRAK88) was performed as follows: preparing subcultures of MS060520HM-PCISRAF18 and MS-K88-030321HM-PC2BSRAK88 on blood agar containing 16 μg/ml tetracycline HCl, incubating for 18 hours at 37° C., and observing haemolytic growth.

MS060520HM-PCISRAF18 = experiment: as above; details: 18 hours at 37° C.
Method: as §1

[2] = system: MS060520HM-PCISRAF18 cells; experiment: Tetracycline HCl serial dilution in TSB media, turbidity
Method: Further evaluation of tetracycline sensitivity of cured MS060520HM-PCISRAF 18 cells was performed as follows: inoculating 10 ml of TSB media with MS060520HM-PCISRAF18 cells, incubating at 37° C. for 22 hours on orbital shaker at 150 rpm, preparing 1:1 serial dilutions of 5 ml tetracycline HCL in TSB media (from stock of 640 mg tetracycline HCl in 5 ml ultrapure water), inoculating the serial dilutions with 10 ul of the fermentate.

[3] = system: MS112101HM-competent (competent Edema Vac F18 cells); experiment: AMR disc testing on Mueller Hinton agar plates; details: antibiotic disc
Method: (§2) AMR testing was performed comparing MS112101HM—SR, MS112101HM-AMR5, and MS112101HM-competent cells cultured on Mueller Hinton agar plates using Sulfatrim (SXT), Tetracycline (TE 30), Neomycin (NE 30), Sulfathiazine (ST 0.25), and Gentamicin (GM 10) discs.

[4] = system: MS112101HM-AMR5 (Edema Vac F18 transformed with AMR5 plasmid); experiment: AMR disc testing on Mueller Hinton agar plates; details: antibiotic disc, Mueller Hinton plates
Method: as §2

[5] = system: MS112101HM-SR (Edema Vac F18 cells cured of plasmids that contain AMR genes); experiment: AMR disc testing on Mueller Hinton agar plates
Method: as §2

[6] = system: ECMS091703HM-competent (competent Entero Vac K88 cells); experiment: AMR disc testing on Mueller Hinton agar plates; details: antibiotic disc
Method: (§3) AMR testing was performed comparing ECMS091703HM-SR and ECMS091703HM-competent cells cultured on Mueller Hinton agar plates using Neomycin (NE 30) and Sulfathiazine (ST 0.25) discs. A master plate of ECMS091703HM-SR was produced as follows: subculturing a colony of ECMS091703HM-SR from LB agar containing 5% sucrose on new LB agar containing 5% sucrose, incubating overnight at 37° C., and storing sealed at 2-8° C.

[7] = system: ECMS091703HM-SR (Entero Vac K88 cells cured of plasmids that contain AMR genes); experiment: AMR disc testing on Mueller Hinton agar plates
Method: as §3

Compound: CN(C)[C@@H]1C(O)=C(C(N)=O)C(=O)[C@@]2(O)C(O)=C3C(=O)c4c(O)cccc4[C@@](C)(O)[C@H]3C[C@@H]12.Cl [Tet HCl, Tetracycline HCL]
- Tetracycline resistance (haemolytic growth) [1]: did not display any tetracycline resistance
- Tetracycline resistance (haemolytic growth) (MS060520HM-PCISRAF18): confirmed tetracycline resistance
- Turbidity 8 hours post inoculation ([2]; Tet HCl 2 μg/ml in TSB media): Pos
- Turbidity 24 hours post inoculation ([2]; Tet HCl 2 μg/ml in TSB media): Pos
- Turbidity 8 hours post inoculation ([2]; Tet HCl 4 μg/ml in TSB media): Pos
- Turbidity 24 hours post inoculation ([2]; Tet HCl 4 μg/ml in TSB media): Pos
- Turbidity 8 hours post inoculation ([2]; Tet HCl 8 μg/ml in TSB media): Pos
- Turbidity 24 hours post inoculation ([2]; Tet HCl 8 μg/ml in TSB media): Pos
- Turbidity 8 hours post inoculation ([2]; Tet HCl 16 μg/ml in TSB media): Pos
- Turbidity 24 hours post inoculation ([2]; Tet HCl 16 μg/ml in TSB media): Pos
- Turbidity 8 hours post inoculation ([2]; Tet HCl 32 μg/ml in TSB media): Pos
- Turbidity 24 hours post inoculation ([2]; Tet HCl 32 μg/ml in TSB media): Pos
- Turbidity 8 hours post inoculation ([2]; Tet HCl 64 μg/ml in TSB media): Slight
- Turbidity 24 hours post inoculation ([2]; Tet HCl 64 μg/ml in TSB media): Pos
- Turbidity 8 hours post inoculation ([2]; Tet HCl 128 μg/ml in TSB media): Neg
- Turbidity 24 hours post inoculation ([2]; Tet HCl 128 μg/ml in TSB media): Pos
- Concentration with inhibited growth ([2]; tetracycline HCl in TSB media): 128 µg/mL

Compound: Sulfathiazine [ST 0.25]
- Ring measurement (radius, mm) [3]: 0 mm
- Ring measurement (radius, mm) [4]: 18 mm
- Ring measurement (radius, mm) ([5]; antibiotic disc, Mueller Hinton plates, MS112101HM-SR): 15 mm
- Resistance of the strain to the antibiotic (in words) ([5]; disc test, MS112101HM-SR compared with MS112101HM-competent): less resistance
- Ring measurement (radius, mm) [6]: 13 mm
- Ring measurement (radius, mm) ([7]; antibiotic disc, Mueller Hinton plates, ECMS091703HM-SR): 20 mm
- Resistance of the strain to the antibiotic (in words) ([7]; disc test, ECMS091703HM-SR compared with ECMS091703HM-competent): less resistance

Source: patent publication US20260097106A1, “AVIRULENT LIVE BACTERIAL VACCINES CURED OF PLASMIDS CONTAINING ANTIMICROBIAL RESISTANCE GENES” (Drs. Koehnk & Feldman, LLP, priority 2022, published 2026)
